IC50 data for 22 molecules are collected here from patent US11970498B2, “CDK2 inhibitors” (BLUEPRINT MEDICINES CORPORATION, priority 2021, dated 2024).

For assay [1], the target named is CDK2/Cyclin E (Homo sapiens, UniProt P24941). As to the kind of experiment: CDK2/Cyclin E biochemical phosphorylation assay (Caliper mobility shift). The settings on record: apparent IC50; 1.0 mM ATP or ATP Km; 1.25 nM enzyme; 25° C.; read-out: CDK2/cyclin E1 IC50. As to the method: (§1) Inhibitory effects of the compounds of the disclosure were measured in biochemical assays that measure the enzymatic phosphorylation activity of CDK enzyme in complex of Cyclin proteins phosphorylates 7.5 micromolar fluorescently labelled peptide substrate, 5-FAM-QSPKKG-CONH2, (FL-Peptide 18, Perkin Elmer, 760362) in the presence of adenosine-5′-triphosphate (ATP) and varying concentrations of the test compound in 100 mM 2-[4-(2-hydroxyethyl)piperazin-1-yl] ethanesulfonic acid (HEPES), pH 7.5, 10 mM MgCl2, 0.015% Brij-35, 1 mM dithiothreitol (DTT), 1.0% dimethylsulfoxide (DMSO). Assays were performed at 1.0 mM ATP or at ATP Km of the CDK enzymes in complex with Cyclin proteins. Reactions proceeded until between 10% to 20% total peptides were phosphorylated at room temperature (25° C.) and were terminated with 35 mM 2,2′,2″,2′″-(ethane-1,2-diyldinitrilo)tetraacetic acid (EDTA). Product was detected using the Caliper mobility shift detection method where the phosphorylated peptide (product) and substrate were electrophoretically separated and measured. Percent activity was plotted against log concentration of compound and points to generate an apparent IC50. The following CDK enzymes in complex with different cyclin proteins were used in these assays: • CDK1/Cyclin B1, GST-tag (BPS, 40454), 1.5 nM used in the assay • CDK2/Cyclin E (Eurofins, 14-475), 1.25 nM used in the assays
(§2) For inhibitory activity against CDK2/Cyclin E mutant, the following designations are used: ≤10 nM=A; >10-20 nM=B; >20-30 nM=C; >30-100 nM=D and >100=E. For inhibition CDK1/Cyclin B1, GST-tag: ≥500 nM=A; <100-500 nM=B; <100 nM=C.

Assay [2] deals with T1, CDK1/Cyclin B1, GST-tag (Homo sapiens, UniProt P06493).
T1 construct: GST
T1 sequence (P06493 whole entry): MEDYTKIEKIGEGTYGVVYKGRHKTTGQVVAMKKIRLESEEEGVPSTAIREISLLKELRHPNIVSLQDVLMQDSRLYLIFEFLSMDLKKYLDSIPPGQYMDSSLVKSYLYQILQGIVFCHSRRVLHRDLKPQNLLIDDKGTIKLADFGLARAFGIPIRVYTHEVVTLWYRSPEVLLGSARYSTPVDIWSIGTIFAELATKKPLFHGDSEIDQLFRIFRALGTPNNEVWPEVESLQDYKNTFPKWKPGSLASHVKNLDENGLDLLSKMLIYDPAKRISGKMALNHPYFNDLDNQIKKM
T1 sequence (P14635 whole entry partner): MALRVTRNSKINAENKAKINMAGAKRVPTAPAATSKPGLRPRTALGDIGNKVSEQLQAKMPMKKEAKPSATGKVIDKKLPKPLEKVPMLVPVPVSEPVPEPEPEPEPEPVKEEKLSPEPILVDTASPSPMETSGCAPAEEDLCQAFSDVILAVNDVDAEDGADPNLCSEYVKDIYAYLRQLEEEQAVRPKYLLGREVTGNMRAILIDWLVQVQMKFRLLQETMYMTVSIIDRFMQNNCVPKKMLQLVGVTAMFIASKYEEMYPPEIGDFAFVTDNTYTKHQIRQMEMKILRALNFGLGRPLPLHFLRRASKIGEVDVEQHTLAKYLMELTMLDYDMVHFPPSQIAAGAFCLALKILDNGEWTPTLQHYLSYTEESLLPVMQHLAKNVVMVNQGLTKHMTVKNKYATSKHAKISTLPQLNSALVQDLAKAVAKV
As to the kind of experiment: CDK1/Cyclin B1 biochemical phosphorylation assay (Caliper mobility shift). The conditions noted are these: apparent IC50; 1.0 mM ATP or ATP Km; 1.5 nM enzyme; 25° C. As for the experimental part: as §1, §2

pIC50: −log10 of the molar value. Where only a bound is given, the exact number is not on record here.

In the case of `FC(F)Oc1cc(Nc2cnc3cnn(C[C@@H]4CC4(F)F)c3n2)n[nH]1` (single isomer, unassigned) [Example 164, (R)-1-((2,2-difluorocyclopropyl)methyl)-N-(5-(difluoromethoxy)-1H-pyrazol-3-yl)-1H-pyrazolo[3,4-b]pyrazin-6-amine or (S)-1-((2,2-difluorocyclopropyl)methyl)-N-(5-(difluoromethoxy)-1H-pyrazol-3-yl)-1H-pyrazolo[3,4-b]pyrazin-6-amine], the pIC50 in assay [1] is 7.70 to 8.00; in assay [2], not above 6.30.
The like results for `[2H]C([2H])([2H])Oc1cc(Nc2cnc3cnn(Cc4cccnc4)c3n2)n[nH]1` [Example 227, N-(5-(methoxy-d3)-1H-pyrazol-3-yl)-1-(pyridin-3-ylmethyl)-1H-pyrazolo[3,4-b]pyrazin-6-amine] were, in that order, 7.70 to 8.00 and not above 6.30.
The matching figures for `FC(F)Oc1cc(Nc2cnc3cnn(Cc4cccc5[nH]ncc45)c3n2)n[nH]1` [Example 128, 1-((1H-indazol-4-yl)methyl)-N-(5-(difluoromethoxy)-1H-pyrazol-3-yl)-1H-pyrazolo[3,4-b]pyrazin-6-amine]: 7.00 to 7.52 and not above 6.30.
As to `C[C@@H](c1cncs1)n1ncc2ncc(Nc3cc(OC(F)F)[nH]n3)nc21` [Example 58, (S)-N-(5-(difluoromethoxy)-1H-pyrazol-3-yl)-1-(1-(thiazol-5-yl)ethyl)-1H-pyrazolo[3,4-b]pyrazin-6-amine], the pIC50 in assay [1] was not below 8.00; in assay [2], not above 6.30.
The like results for `C[C@@H](c1cccnn1)n1ncc2ncc(Nc3cc(OC(F)F)[nH]n3)nc21` (single isomer, unassigned) [Example 24, (S)—N-(5-(difluoromethoxy)-1H-pyrazol-3-yl)-1-(1-(pyridazin-3-yl)ethyl)-1H-pyrazolo[3,4-b]pyrazin-6-amine or (R)—N-(5-(difluoromethoxy)-1H-pyrazol-3-yl)-1-(1-(pyridazin-3-yl)ethyl)-1H-pyrazolo[3,4-b]pyrazin-6-amine] were, in that order, not below 8.00 and 6.30 to 7.00.
The matching figures for `C[C@@H](O)c1nn([C@@H](C)C2CCOCC2)c2nc(Nc3cc(OC(F)F)[nH]n3)cnc12` (single isomer, unassigned) [Example 181, (R)-1-(6-((5-(difluoromethoxy)-1H-pyrazol-3-yl)amino)-1-((S)-1-(tetrahydro-2H-pyran-4-yl)ethyl)-1H-pyrazolo[3,4-b]pyrazin-3-yl)ethan-1-ol or (S)-1-(6-((5-(difluoromethoxy)-1H-pyrazol-3-yl)amino)-1-((S)-1-(tetrahydro-2H-pyran-4-yl)ethyl)-1H-pyrazolo[3,4-b]pyrazin-3-yl)ethan-1-ol]: not below 8.00 and not above 6.30.
The matching figures for `C[C@@H]([C@@H]1COCCO1)n1ncc2ncc(Nc3cc(OC(F)F)[nH]n3)nc21` (single isomer, unassigned) [Example 211]: 7.00 to 7.52 and not above 6.30.
Regarding `FC[C@@H](c1cccnc1)n1ncc2ncc(Nc3cc(OC(F)F)[nH]n3)nc21` (single isomer, unassigned) [Example 19, (R)—N-(5-(difluoromethoxy)-1H-pyrazol-3-yl)-1-(2-fluoro-1-(pyridin-3-yl)ethyl)-1H-pyrazolo[3,4-b]pyrazin-6-amine or (S)—N-(5-(difluoromethoxy)-1H-pyrazol-3-yl)-1-(2-fluoro-1-(pyridin-3-yl)ethyl)-1H-pyrazolo[3,4-b]pyrazin-6-amine], the figures for the pIC50 in assay [1] and in assay [2] were not below 8.00 and 6.30 to 7.00, respectively.
Take `CC1(Cn2ncc3ncc(Nc4cc(OC(F)F)[nH]n4)nc32)COC1` [Example 119, N-(5-(difluoromethoxy)-1H-pyrazol-3-yl)-1-((3-methyloxetan-3-yl)methyl)-1H-pyrazolo[3,4-b]pyrazin-6-amine]: the results for the pIC50 in assay [1] and in assay [2] were not below 8.00 and not above 6.30, respectively.
The matching figures for `FC(F)Oc1cc(Nc2cnc3cnn(C4CCC(F)(F)CC4)c3n2)n[nH]1` [Example 44, 1-(4,4-difluorocyclohexyl)-N-(5-(difluoromethoxy)-1H-pyrazol-3-yl)-1H-pyrazolo[3,4-b]pyrazin-6-amine]: 7.70 to 8.00 and not above 6.30.
The matching figures for `COc1cc(Nc2cnc3cnn(CC4CC4)c3n2)n[nH]1` [Example 69, 1-(cyclopropylmethyl)-N-(5-methoxy-1H-pyrazol-3-yl)-1H-pyrazolo[3,4-b]pyrazin-6-amine]: 7.00 to 7.52 and not above 6.30.
`FC(F)Oc1cc(Nc2cnc3cnn(C[C@H]4[C@@H]5COC[C@@H]54)c3n2)n[nH]1` [Example 81, 1-(((1R,5S,6s)-3-oxabicyclo[3.1.0]hexan-6-yl)methyl)-N-(5-(difluoromethoxy)-1H-pyrazol-3-yl)-1H-pyrazolo[3,4-b]pyrazin-6-amine]: the pIC50 in assay [1] was not below 8.00; in assay [2], not above 6.30.
The matching figures for `C[C@H](c1cccnc1)n1ncc2ncc(Nc3cc(OC(F)F)[nH]n3)nc21` [Example 91, (R)-N-(5-(difluoromethoxy)-1H-pyrazol-3-yl)-1-(1-(pyridin-3-yl)ethyl)-1H-pyrazolo[3,4-b]pyrazin-6-amine]: 7.52 to 7.70 and not above 6.30.
The like results for `CC(C)(C1CC1)n1ncc2ncc(Nc3cc(OC(F)F)[nH]n3)nc21` [Example 23, 1-(2-cyclopropylpropan-2-yl)-N-(5-(difluoromethoxy)-1H-pyrazol-3-yl)-1H-pyrazolo[3,4-b]pyrazin-6-amine] were, in that order, not below 8.00 and 6.30 to 7.00.
Consider `COc1cc(Nc2cnc3cnn(Cc4cccnc4)c3n2)n[nH]1` [Example 135, N-(5-methoxy-1H-pyrazol-3-yl)-1-(pyridin-3-ylmethyl)-1H-pyrazolo[3,4-b]pyrazin-6-amine], for which the pIC50 in assay [1] was 7.70 to 8.00; in assay [2], not above 6.30.
The like results for `O[C@H]1C[C@H](n2ncc3ncc(Nc4cc(OC(F)F)[nH]n4)nc32)C1` (single isomer, unassigned) [Example 145, (1r,3r)-3-(6-((5-(difluoromethoxy)-1H-pyrazol-3-yl)amino)-1H-pyrazolo[3,4-b]pyrazin-1-yl)cyclobutan-1-ol or (1s,3s)-3-(6-((5-(difluoromethoxy)-1H-pyrazol-3-yl)amino)-1H-pyrazolo[3,4-b]pyrazin-1-yl)cyclobutan-1-ol] were, in that order, less than 7.00 and not above 6.30.
The matching figures for `O[C@H]1C[C@H](Cn2ncc3ncc(Nc4cc(OC(F)F)[nH]n4)nc32)C1` [Example 220, (1r,3r)-3-((6-((5-(difluoromethoxy)-1H-pyrazol-3-yl)amino)-1H-pyrazolo[3,4-b]pyrazin-1-yl)methyl)cyclobutan-1-ol]: 7.00 to 7.52 and not above 6.30.
For the molecule `FC[C@H](c1ccccc1)n1ncc2ncc(Nc3cc(OC(F)F)[nH]n3)nc21` (single isomer, unassigned) [Example 90, (S)-N-(5-(difluoromethoxy)-1H-pyrazol-3-yl)-1-(2-fluoro-1-phenylethyl)-1H-pyrazolo[3,4-b]pyrazin-6-amine or (R)-N-(5-(difluoromethoxy)-1H-pyrazol-3-yl)-1-(2-fluoro-1-phenylethyl)-1H-pyrazolo[3,4-b]pyrazin-6-amine], the figures for the pIC50 in assay [1] and in assay [2] were 7.00 to 7.52 and not above 6.30, respectively.
The matching figures for `C[C@@H](CCO)n1ncc2ncc(Nc3cc(OC(F)F)[nH]n3)nc21` (single isomer, unassigned) [Example 205, (S)-3-(6-((5-(difluoromethoxy)-1H-pyrazol-3-yl)amino)-1H-pyrazolo[3,4-b]pyrazin-1-yl)butan-1-ol or (R)-3-(6-((5-(difluoromethoxy)-1H-pyrazol-3-yl)amino)-1H-pyrazolo[3,4-b]pyrazin-1-yl)butan-1-ol]: 7.00 to 7.52 and not above 6.30.
As for `C[C@@H](C1CCOCC1)n1nc(F)c2ncc(Nc3cc(OC(F)F)[nH]n3)nc21` [Example 124, (S)-N-(5-(difluoromethoxy)-1H-pyrazol-3-yl)-3-fluoro-1-(1-(tetrahydro-2H-pyran-4-yl)ethyl)-1H-pyrazolo[3,4-b]pyrazin-6-amine], the pIC50 in assay [1] is not below 8.00; in assay [2] it was 6.30 to 7.00.
The matching figures for `[2H]C([2H])(c1cccnc1)n1ncc2ncc(Nc3cc(OC(F)F)[nH]n3)nc21` [Example 224, N-(5-(difluoromethoxy)-1H-pyrazol-3-yl)-1-(pyridin-3-ylmethyl-d2)-1H-pyrazolo[3,4-b]pyrazin-6-amine]: not below 8.00 and not above 6.30.
The like results for `C[C@@H](c1ccc(F)cn1)n1ncc2ncc(Nc3cc(OC(F)F)[nH]n3)nc21` [Example 48, (S)-N-(5-(difluoromethoxy)-1H-pyrazol-3-yl)-1-(1-(5-fluoropyridin-2-yl)ethyl)-1H-pyrazolo[3,4-b]pyrazin-6-amine] were, in that order, not below 8.00 and not above 6.30.
